These results are taken from patent US20240391902A1, “Crystalline Form of Compound” (Shenzhen Forward Pharmaceuticals Co., Limited, priority 2020, published 2024).

Common to all, as to type: physicochemical
The nature of data set [1]: Solid storage stability test. The following applies: for chemical and physical stability after storage: solid/25° C./60% RH/open/1 week and/or solid/60° C./closed container/1 week. The procedure:
Each amorphous salt solid was weighed (two 2 mg samples were weighed for purity testing after solid storage stability study, and one 10 mg sample was weighed for XRPD testing after solid storage stability study) and placed in a glass vial. In a 25° C./60% RH solid storage stability test, the amorphous salt solid was placed in a 25° C./60% RH constant temperature and humidity chamber, and placed in the dark for 1 week (i.e. “solid/25° C./60% RH/open/1 week”), and in a 60° C. solid storage stability test, the amorphous salt solid was sealed in an oven at 60° C. and heated for 1 week in the dark (i.e. “solid/60° C./closed container/1 week”). Then the sample was taken out for purity testing, crystal form detection and appearance observation, respectively.

Data set [2] can be described thus: Solid solubility test (2 h and 24 h). The following applies: Test ES4: FaSSIF-V1 (pH 6.5); for Solubility measured at 2 h: 37° C., based on free base. The procedure:
5 samples were weighed for each amorphous salt solid (equivalent to 20 mg of free base), and 10 mL of the following solvents were respectively added: 0.1N HCl solution (pH 1.0), 50 mM phosphate buffer (pH 4.5), FeSSIF-V1 (pH 5.0), FaSSIF-V1 (pH 6.5) and SGF (pH 2.0), and stirred at 37° C. for 2 h. The suspension was then centrifuged at 37° C., the supernatant was measured for solubility by HPLC, and the solid fraction was measured for XRPD. The target solubility was at least 2 mg (based on free base)/mL.

The nature of another data set: Dynamic solubility test. The following applies: for dynamic solubility: room temperature, feeding concentration 10 mg/mL. The procedure: Determination method: According to a feeding concentration of 10 mg/mL, about 50 mg of the sample were weighed and added to 5 mL of the corresponding medium, and the sample was dissolved by rotating at […] at room temperature.

Where [3] appears, read: Test BS1: solid/25° C./60% RH/open/1 week.
Where [4] appears, read: Test BS2: solid/60° C./closed container/1 week.

A value given as a limit tells only on which side of the number the result lay.

Turning to `C=CC(=O)Nc1cc(Nc2ncnc(-c3cn(C)c4ccccc34)n2)c(OC)cc1N(C)CCN(C)C` [Example 5], the “Morphology (XRPD crystallinity)” value in data set [1] (setting [3]) is given as “low crystallinity (FIG”; in data set [1] (setting [4]) it was “amorphous (FIG. 94),”. Besides, the “Morphology (agglomeration, appearance)” value in data set [1] (setting [3]) is listed as 94), agglomeration; in data set [1] (setting [4]) it was “partial agglomeration”. The “chemical and physical stability after storage” value (“chemical and physical stability” below) in data set [1] (listed as 2 eq. mesylate salt) and in data set [1] (listed as amorphous 2 eq. mesylate salt) was “physically unstable” in each case. The “physical and chemical stability (in words)” value is “transformed from amorphous to a low crystallinity and showed a certain hygroscopicity (agglomeration)” in data set [1] (solid/25° C./60% RH/open/1 week, listed as amorphous 2 eq. mesylate salt); “a certain hygroscopicity (partial agglomeration)” in data set [1] (solid/60° C./closed container/1 week, listed as amorphous 2 eq. mesylate salt). Moreover, the “pH measured at 2 h” value in data set [2] is reported as “(6.2)”.

As to `C=CC(=O)Nc1cc(Nc2ncnc(-c3cn(C)c4ccccc34)n2)c(OC)cc1N(C)CCN(C)C` [Example 6], the “Morphology (XRPD crystallinity)” value in data set [1] (setting [3]) and in data set [1] (setting [4]) was “amorphous (FIG. 96),” each time. In addition, the “chemical and physical stability” value in data set [1] (listed as 1 eq. besylate salt) and in data set [1] (listed as amorphous 1 eq. besylate salt) was “chemically unstable” throughout. Moreover, the “physical and chemical stability (in words)” value in data set [1] (solid/60° C./closed container/1 week, listed as amorphous 1 eq. besylate salt) is “good physical and chemical stability”.

`C=CC(=O)Nc1cc(Nc2ncnc(-c3cn(C)c4ccccc34)n2)c(OC)cc1N(C)CCN(C)C` [Example 7]: the values for the Color entry in data set [1] (setting [3]) and in data set [1] (setting [4]) were “slight color change” and “no color change”, respectively. In data set [1] (setting [4]), the “Morphology (XRPD crystallinity)” value is listed as “amorphous (FIG. 98),”. Moreover, in data set [1] (setting [4]), the “Morphology (agglomeration, appearance)” value is listed as “no agglomeration”. For the same compound, the “chemical and physical stability” value in data set [1] (listed as 2 eq. besylate salt) and in data set [1] (listed as amorphous 2 eq. besylate salt) was “physically unstable” in each case. In addition, the “physical and chemical stability (in words)” value is “slight color change and showed significant hygroscopicity (caking and fusion to a glassy state)” in data set [1] (solid/25° C./60% RH/open/1 week, listed as amorphous 2 eq. besylate salt); “good physical and chemical stability” in data set [1] (solid/60° C./closed container/1 week, listed as amorphous 2 eq. besylate salt). Further, the “pH measured at 2 h” value in data set [2] was “(6.1)”. Besides, in data set [2], the “Solubility measured at 2 h” value is more than 2000 µg/mL.

Turning to `C=CC(=O)Nc1cc(Nc2ncnc(-c3cn(C)c4ccccc34)n2)c(OC)cc1N(C)CCN(C)C` [Example 8], the Color result in data set [1] (setting [3]) is listed as “no color change”. In data set [1] (setting [4]), the Color result is given as “no color change”; the “Morphology (XRPD crystallinity)” value is given as “amorphous (FIG. 100),”; the “Morphology (agglomeration, appearance)” value is “no agglomeration”. Moreover, in data set [1] (listed as 1 eq. esylate salt), the “chemical and physical stability” value is given as “physically unstable”. For the same compound, the “chemical and physical stability” value in data set [1] (listed as amorphous 1 eq. esylate salt) was “physically unstable”. Besides, in data set [1] (solid/25° C./60% RH/open/1 week, listed as amorphous 1 eq. esylate salt), the “physical and chemical stability (in words)” value was “significant hygroscopicity (caking and fusion to a glassy state)”. Further, in data set [1] (solid/60° C./closed container/1 week, listed as amorphous 1 eq. esylate salt), the “physical and chemical stability (in words)” value was “good physical and chemical stability”. In data set [2], the “pH measured at 2 h” value was “(6.4)” and the “Solubility measured at 2 h” value was more than 2000 µg/mL.

As for `C=CC(=O)Nc1cc(Nc2ncnc(-c3cn(C)c4ccccc34)n2)c(OC)cc1N(C)CCN(C)C` [Example 22], the dynamic solubility in the data set “Dynamic solubility test” (FaSSIF, 0.5 h, listed as crystaline form II-A of mesylate salt) was 6600 µg/mL; in the data set “Dynamic solubility test” (FaSSIF, 1 h, listed as crystaline form II-A of mesylate salt), 6200 µg/mL; in the data set “Dynamic solubility test” (FaSSIF, 2 h, listed as crystaline form II-A of mesylate salt) it was 7000 µg/mL; in the data set “Dynamic solubility test” (FaSSIF, 4 h, listed as crystaline form II-A of mesylate salt), 6900 µg/mL; in “Dynamic solubility test” (FaSSIF, 24 h, listed as crystaline form II-A of mesylate salt), 9900 µg/mL; in “Dynamic solubility test” (SGF, 0.5 h, listed as crystaline form II-A of mesylate salt) it was more than 10000 µg/mL. Also, the dynamic solubility in the data set “Dynamic solubility test” (SGF, 1 h, listed as crystaline form II-A of mesylate salt) was more than 10000 µg/mL; in “Dynamic solubility test” (SGF, 2 h, listed as crystaline form II-A of mesylate salt), more than 10000 µg/mL; in the data set “Dynamic solubility test” (SGF, 4 h, listed as crystaline form II-A of mesylate salt), more than 10000 µg/mL; in the data set “Dynamic solubility test” (SGF, 24 h, listed as crystaline form II-A of mesylate salt), more than 10000 µg/mL. The solubility in “Dynamic solubility test” (water, SGF, FaSSIF and FeSSIF, thermodynamic from solid, water, SGF, FaSSIF and FeSSIF, all time points, read-out: dynamic solubility in water, SGF, FaSSIF and FeSSIF (conclusion)) was more than 4000 µg/mL.

For `C=CC(=O)Nc1cc(Nc2ncnc(-c3cn(C)c4ccccc34)n2)c(OC)cc1N(C)CCN(C)C` [Example 23], the dynamic solubility was 5300 µg/mL in “Dynamic solubility test” (FaSSIF, 0.5 h, listed as crystaline form III-A of hydrochloride salt); 5200 µg/mL in the data set “Dynamic solubility test” (FaSSIF, 1 h, listed as crystaline form III-A of hydrochloride salt); 5000 µg/mL in “Dynamic solubility test” (FaSSIF, 2 h, listed as crystaline form III-A of hydrochloride salt); 5000 µg/mL in “Dynamic solubility test” (FaSSIF, 4 h, listed as crystaline form III-A of hydrochloride salt); 8200 µg/mL in the data set “Dynamic solubility test” (FaSSIF, 24 h, listed as crystaline form III-A of hydrochloride salt); more than 10000 µg/mL in the data set “Dynamic solubility test” (SGF, 0.5 h, listed as crystaline form III-A of hydrochloride salt). Moreover, the dynamic solubility was more than 10000 µg/mL in the data set “Dynamic solubility test” (SGF, 1 h, listed as crystaline form III-A of hydrochloride salt); more than 10000 µg/mL in the data set “Dynamic solubility test” (SGF, 2 h, listed as crystaline form III-A of hydrochloride salt); more than 10000 µg/mL in the data set “Dynamic solubility test” (SGF, 4 h, listed as crystaline form III-A of hydrochloride salt); more than 10000 µg/mL in the data set “Dynamic solubility test” (SGF, 24 h, listed as crystaline form III-A of hydrochloride salt).

In the case of `C=CC(=O)Nc1cc(Nc2ncnc(-c3cn(C)c4ccccc34)n2)c(OC)cc1N(C)CCN(C)C` [Example 24], the dynamic solubility in “Dynamic solubility test” (FaSSIF, 0.5 h, listed as crystaline form IV-C of maleate salt) is 6100 µg/mL; in the data set “Dynamic solubility test” (FaSSIF, 1 h, listed as crystaline form IV-C of maleate salt), 6200 µg/mL; in “Dynamic solubility test” (SGF, 0.5 h, listed as crystaline form IV-C of maleate salt), more than 10000 µg/mL; in “Dynamic solubility test” (SGF, 1 h, listed as crystaline form IV-C of maleate salt), more than 10000 µg/mL; in the data set “Dynamic solubility test” (SGF, 2 h, listed as crystaline form IV-C of maleate salt), more than 10000 µg/mL; in “Dynamic solubility test” (SGF, 4 h, listed as crystaline form IV-C of maleate salt), more than 10000 µg/mL. For the same compound, the dynamic solubility in the data set “Dynamic solubility test” (SGF, 24 h, listed as crystaline form IV-C of maleate salt) was more than 10000 µg/mL.
